Experimental data: patent US12648947B2, “Heterocyclic derivatives, pharmaceutical compositions and their use in the treatment, amelioration or prevention of fibrotic disease” (TOLREMO THERAPEUTICS AG, priority 2020, dated 2026)
Like-named read-outs stand apart in the source and are kept apart here. Values belong to the compound of their own block, whether it stands above or below them.

What was measured:
[1] = tested on: TGF-β1 induced Fibronectin 1 (FN1) production by IPF diseased donor's bronchial epithelial cells; assay: Epithelial-to-Mesenchymal Transition (EMT) assay; assay type: cell-based; set-up: Δ Percentage Inhibition (PIN), [%]: concentration or dose not given beside the values; conditions: for IC50: Epithelial cell, 72 h, 5.0 ng/ml TGF-β1, 72 h, read-out: IC50 FN1, Log (converted); for Δ Percentage Inhibition (PIN), [%]: FN1
Protocol: Bronchial epithelial cells (BEC) from 3 IPF donors (PatA-C) were seeded for automated high-content/high-throughput microscopy. At day 2 cell culture medium was refreshed in the wells and cells grown until day 5, at which drug treatment was initiated.
Drug addition was done 1 h before stimuli addition (5.0 ng/ml TGF-β1). For trigger controls wells with BEC were treated with medium (unstimulated control) or 5.0 ng/ml TGF-β1 (stimulated control). For assay controls fibroblasts were treated with 5.0 ng/ml TGF-β1+0.1% DMSO (unstimulated control) or 5.0 ng/ml TGF-β1+1 μM SB525334 (positive control for inhibition). The reference compound and clinically approved drug nintedanib was added as concentration response curve (CRC) with 8-points in a semi-Log dilution staring from 10 μM. […] Wells were fixed with 4% paraformaldehyde and stained for Fibronectin (FN1) expression using immunofluorescence and with DAPI to assess nuclei number per well. Image acquisition and high content analysis (HCA) of FN1 and DAPI was done on a high content microscope.
(§1) Analysis of αSMA/FN1: Images were segmented and quantificatied for αSMA/FN1 immunoreactivity by an HCA algorithm, with density x area (DxA) output. Data were normalized from raw αSMA/FN1 (DxA) to percentage inhibition (PIN) values, on a plate-to-plate basis
(§2) [formula] • μp is the average αSMA/FN1 value of the positive control (TGF-β1+1 μM SB525334) • μn is the average of αSMA/FN1 value of the vehicle control (TGF-β1+0.1% DMSO) • Xi is the compound αSMA/FN1 value
(§3) Analysis of % Remaining cells: DAPI fluorescence applied for HCA-based quantification of the number of imaged cells, on a plate-to-plate basis.
(§4) [formula] • μn is the average numbers of nuclei of the vehicle control (TGF-β1+0.1% DMSO) • Xi is the compound number of nuclei

[2] = tested on: TGF-β1 induced α-smooth muscle actin (αSMA) production by IPF diseased donor's lung fibroblast; assay: Fibroblast-to-Myofibroblast Transition (FMT) assay; assay type: cell-based; conditions: for IC50: Fibroblast, 72 h, 1.25 ng/ml TGF-β1, 72 h, read-out: IC50 αSMA, Log (converted); for Potential toxicity Log [M]: concentration with >25% cell loss (DAPI nuclei); for Max. Percentage Inhibition (PIN), [%]: αSMA
Protocol: Lung fibroblasts from 3 IPF donors (Pat1-3) were seeded for automated high-content/high-throughput microscopy. At day 2 cell culture medium was refreshed in the wells and fibroblast grown until day 5, at which point drug treatment was initiated.
Drug addition was done 1 h before stimuli addition (1.25 ng/ml TGF-β1). For trigger controls wells with fibroblasts were treated with medium (unstimulated control) or 1.25 ng/ml TGF-β1 (stimulated control). For assay controls fibroblasts were treated with 1.25 ng/ml TGF-β1+0.1% DMSO (unstimulated control) or 1.25 ng/ml TGF-β1+1 μM SB525334 (positive control for inhibition). Reference compound and clinically approved drug nintedanib was added as concentration response curve (CRC) with 8-points in a semi-Log dilution starting from 10 μM.
Wells were fixed with 4% paraformaldehyde and stained for α-smooth muscle actin (αSMA) expression using immunofluorescence and with DAPI to assess nuclei number per well. Image acquisition and high content analysis (HCA) of αSMA and DAPI was done on a high content microscope.
as §1, §2, §3, §4

HCC827 lung cancer cells = assay: Fibrotic gene expression analysis by RNA sequencing; assay type: cell-based; conditions: 1 μM, 24 h vs DMSO
Protocol: (§5) 250000 HCC827 (ATCC; CRL 2868) cells/well or 200000 NCI-H1975 (ATCC; CRL 5908) cells/well were seeded in 6-well dishes (Greiner Bio-One, 7657160) the day before drug treatment in RPMI medium containing 10% FCS and 2 mM L-Glutamine. […] Subsequently cells were washed 3 times with 2 ml PBS and lysed in 300 μl lysis buffer (RA1+1% TCEP [Sigma 646547]). RNA is extracted according to Macherey-Nagel NucleoSpin 8 RNA Kit protocol for vacuum (740698.5) for RNA extraction and RNA is eluted in H2O. RNA Library preparation and sequqnening was done externally. In short, RNA sequencing libraries were generated using TruSeq RNA Sample Prep Kit v2 following manufacturer's recommendations and index codes were added to attribute sequences to each sample. Samples were sequenced using an Illumnia platform, with paired-end reads. Illumina SBS technology utilizes a proprietary reversible terminator-based method that detects single bases as they are incorporated into DNA template strands. The original data obtained from the high throughput sequencing platforms were transformed to sequenced reads by base calling. Raw data are recorded in a FASTQ file which contains sequenced reads and corresponding sequencing quality information and were further processed to obtain transcripts per million values (TPM) for variable genes.

[3] = tested on: NCI-H1975 lung cancer cells; assay: as above; assay type: cell-based; conditions: 1 μM, 24 h vs DMSO
Protocol: as §5

CBP bromodomain = target: T1, CBP bromodomain (Homo sapiens, UniProt Q92793); assay: CBP bromodomain binding assay (TR-FRET); conditions: 1 hour incubation at room temperature
T1 construct: purchased Cayman chemicals 600850
Protocol: Compounds solutions of 10 mM in DMSO were pre-diluted in DSMO to 25× stock solutions in DMSO. These were then diluted down to 4× in Assay buffer. A dilution series in Assay buffer was performed keeping the DMSO concentration stable. 5 μl compound in assay buffer was transferred into the assay plate (provided by assay kit) and the TR-FRET assay Cayman chemicals; 600850) was performed using the manufacture's instructions. After 1 hour incubation at room temperature in the darks, assay plates were read in a Tecan M1000 plate reader using the TR-FRET mode (top read; excitation 340 nm bandwidth 20 nM; emission 620 nm bandwidth 7 nM; gain optimal determined for the first well, number of flashes: 5; flash frequency 100 Hz; integration time: 500 μs, lag time: 100 μs, room temperature). The TR-FRET ratio was calculated by dividing 670 nm emission by 620 nm emission. […] Values were log transformed and non-linear regression with variable slope (4 parameters) was used to fit values to a dose-response curve to evaluate EC50 values (see table 5 below).

T1 sequence (Q92793 1085-1192 limits assumed): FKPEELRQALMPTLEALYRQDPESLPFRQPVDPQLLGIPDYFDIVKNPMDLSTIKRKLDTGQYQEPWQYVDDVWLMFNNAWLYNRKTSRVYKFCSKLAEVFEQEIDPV

EC50 (CBP bromodomain): < 200 nM
SMILES: CC(=O)N1C[C@H](c2nc(Nc3cncc(C)c3)cc(-c3cncc4[nH]ccc34)n2)CC[C@@H]1C [Compound 00075]

EC50 (CBP bromodomain): 200 to 1000 nM
SMILES: CC(=O)N1C[C@H](c2nc(Nc3ccncc3)cc(-c3cccnc3)n2)CC[C@@H]1C [Compound 00077]

IC50 ([1]; PatA BEC donor): 10000 nM
IC50 ([1]; PatC BEC donor): 63.1 nM
SMILES: COC(=O)c1ccc2c(c1)NC(=O)/C2=C(\Nc1ccc(N(C)C(=O)CN2CCN(C)CC2)cc1)c1ccccc1 [Nintedanib, reference compound]
Δ Percentage Inhibition (PIN), [%] ([1]; PatA BEC donor): 45.9%
Δ Percentage Inhibition (PIN), [%] ([1]; PatB BEC donor): 81.7%
Δ Percentage Inhibition (PIN), [%] ([1]; PatC BEC donor): 72.1%
IC50 ([2]; Pat1 lung fibroblast donor): 631 nM
IC50 ([2]; Pat2 lung fibroblast donor): 398 nM
IC50 ([2]; Pat3 lung fibroblast donor): 200 nM
Potential toxicity Log [M] ([2]; Pat1): >−5.5 Log [M]
Potential toxicity Log [M] ([2]; Pat2): >−7.0 Log [M]
Potential toxicity Log [M] ([2]; Pat3): >−6.0 Log [M]
Max. Percentage Inhibition (PIN), [%] ([2]; Pat1 lung fibroblast donor): 109.3%
Max. Percentage Inhibition (PIN), [%] ([2]; Pat2 lung fibroblast donor): 101%
Max. Percentage Inhibition (PIN), [%] ([2]; Pat3 lung fibroblast donor): 98.4%

Second part, the compound before the results:

SMILES: COc1cncc(-c2cc(Nc3cccc(F)c3)nc([C@@H]3CC[C@H](C)N(C(C)=O)C3)n2)c1 [Compound 00004]
inhibition of TGF-β1-mediated FN1 expression ([1]; BEC from 2 IPF donors): full concentration-dependent inhibition
inhibition of TGF-β1-mediated FN1 expression ([1]; BEC from one IPF donor, partial = ΔPIN <75): partial
modulation of the number of nuclei ([1]; BEC, indicative of absence of potential cytotoxic side-effects): No modulation
IC50 ([1]; PatA BEC donor): 5010 nM
IC50 ([1]; PatB BEC donor): 1000 nM
IC50 ([1]; PatC BEC donor): 2000 nM
Δ Percentage Inhibition (PIN), [%] ([1]; PatA BEC donor): 62.5%
Δ Percentage Inhibition (PIN), [%] ([1]; PatB BEC donor): 84.9%
Δ Percentage Inhibition (PIN), [%] ([1]; PatC BEC donor): 116.3%
IC50 ([2]; Pat1 lung fibroblast donor): 1260 nM
IC50 ([2]; Pat2 lung fibroblast donor): 2510 nM
IC50 ([2]; Pat3 lung fibroblast donor): 2000 nM
inhibition of TGF-β1-mediated αSMA expression ([2]; all 3 IPF donors' lung fibroblast): full concentration-dependent inhibition
Potential toxicity Log [M] ([2]; Pat1): >−5.2 Log [M]
Potential toxicity Log [M] ([2]; Pat2): >−5.2 Log [M]
Potential toxicity Log [M] ([2]; Pat3): >−5.2 Log [M]
Max. Percentage Inhibition (PIN), [%] ([2]; Pat1 lung fibroblast donor): 90.3%
Max. Percentage Inhibition (PIN), [%] ([2]; Pat2 lung fibroblast donor): 127.1%
Max. Percentage Inhibition (PIN), [%] ([2]; Pat3 lung fibroblast donor): 105.1%
expression of genes up-regulated during fibrotic disease (MMP, FN1, COL1A1), mRNA abundance (TPM) (HCC827 lung cancer cells): reduces expression of genes
expression of genes up-regulated during fibrotic disease (MMP, FN1, COL1A1), mRNA abundance (TPM) [3]: reduces expression of genes

SMILES: CC(=O)N1C[C@H](c2nc(Nc3cc(F)c4cc[nH]c4c3)cc(-c3cccnc3)n2)CC[C@@H]1C [Compound 00040]
EC50 (CBP bromodomain): < 200 nM

SMILES: CC(=O)N1C[C@H](c2nc(Nc3ccccc3)cc(-c3cncnc3)n2)CC[C@@H]1C [Compound 00062]
EC50 (CBP bromodomain): 200 to 1000 nM

SMILES: CC(=O)N1C[C@H](c2nc(Nc3ccccc3)cc(-c3cncc4[nH]ccc34)n2)CC[C@@H]1C [Compound 00063]
EC50 (CBP bromodomain): < 200 nM
